Source: US9556109B1, “Triscationic amphiphile derivative compounds having a pendent alcohol group, compositions thereof, and methods for making same” (James Madison Innovations, Inc., priority 2015, dated 2017)
In brackets after ≈: the same amount, converted by molar mass.

Key:
[1] = system: Pseudomonas aeruginosa biofilm; assay: Crystal Violet Biofilm Disruption Assay; format: cell-based; settings: for Max % disruption: over 250-2 μM
Description: A Crystal Violet Biofilm Disruption Assay was adapted from the techniques described in Bendouah, et al. 2006, Biofilm formation by Staphylococcus aureus and Pseudomonas aeruginosa is associated with an unfavorable evolution after surgery for chronic sinusitis and nasal polyposis, Otolaryngol. […] Bacteriol. 193 (20):5616-22. doi: 10.1128/JB.05534-11, which are incorporated by reference in their entirety. Applicants' adapted assay was performed as follows: • 1. Bacterial growth: […] (120 RPM in shaking incubator) for 24 hours • 2. Working stock: Overnight liquid culture diluted down to a bacterial concentration of approximately 5×10^6 CFU/mL in fresh LB • 3. Plate inoculation: Sterile 96-well microtiter plate inoculated with working stock: […] Plate covered with plastic cover, parafilm wrapped around edges; Incubate 24 hours at 37 degrees C. (stationary incubator) to establish biofilm • 4. Treatment: Row A and B: 100 μL sterile PBS (blank and negative control for disruption, respectively); […] Plate covered, wrapped with fresh parafilm, incubated at 37 degrees C. for 24 hours • 5. Staining and quantification: Plate rinsed twice with 1×PBS and allowed to dry; Wells stained with 100 μL 0.1% Crystal Violet dye for 15 minutes, excess rinsed off with gentle running dI water, allowed to dry; Stain dissolved in 100 μL 95% ethanol per well for 1 hour; Ethanol/CV solution transferred to fresh 96-well plate; Plate read at 570 nm on spectrophotometer plate reader; Values for rows C-H compared to row B (neg. control for disruption) to obtain % biofilm disruption at each concentration.

P. aeruginosa (G−) [2] = settings: comparison values of known antibiotics; cited from earlier work
E. coli (G−) = assay: Minimum inhibitory concentration (MIC), E. coli; format: cell-based, Escherichia coli
Pa2 (G−) = assay: Minimum inhibitory concentration (MIC), Pa2; settings: Experiment 1, Table 2
Gram-negative bacteria = assay: MIC, summary for Gram-negative bacteria; format: cell-based; settings: text summary over tested strains
[3] = Isothermal titration calorimetry: critical aggregation concentration and degree of ionization; format: physicochemical; settings: 37° C.; for CAC: ITC, pure water
Description: Isothermal titration calorimetry (ITC) was used to determine the critical aggregation concentration (CAC) and the degree of ionization at 37° C. associated with aggregate formation for each amphiphile for the M-E series, as shown in Table 1.
A Nano ITC was used to measure the heat change associated with the deaggregation of amphiphiles via power compensation. A concentrated aqueous solution of amphiphile (>>CAC) was titrated into a thermally controlled sample cell, initially containing pure water, in a series of discrete injections. Isothermal titration calorimetry was used to determine the critical aggregation concentration (CAC).
CAC and ΔHagg were determined using a Nano-ITC (TA-Instruments). Prior to each experiment the sample cell was washed with dH2O (300 mL), ethanol (100 mL), dH2O (300 mL) and nanopure water (200 mL). Next, 950 μL of nanopure water was added to the sample cell. A concentrated aqueous solution (>>CAC) of amphiphile was prepared and equilibrated at 37° C. A 250 μL syringe was filled with the aqueous solution, and loaded into the Nano ITC. Multiple single injections in aliquots of 5 μL were injected into the sample cell with time intervals varying from 300 s to 1400 s. Samples were continuously stirred (300 rpm) throughout the titration. The Nano-Analyze program (TA-Instruments) was used to analyze the data. CAC and ΔHagg values reported are the average of two or more repeat experiments for each amphiphile.

P. aeruginosa (G−) [4] = assay: Minimum inhibitory concentration (MIC), P. aeruginosa; format: cell-based, Pseudomonas aeruginosa
S. aureus (G+) = assay: Minimum inhibitory concentration (MIC), S. aureus; format: cell-based, Staphylococcus aureus
B. subtilis (G+) = format: cell-based; settings: Experiment 2, Table 3
Gram-positive bacteria = assay: MIC, summary for Gram-positive bacteria; format: cell-based; settings: text summary over tested strains
B. anthracis (G+) = format: cell-based; settings: Experiment 2, Table 3
S. agalactiae (G+) = assay: Minimum inhibitory concentration (MIC), S. agalactiae; format: cell-based, Streptococcus agalactiae; settings: Experiment 2, Table 3
Pa1 (G−) = assay: Minimum inhibitory concentration (MIC), Pa1; settings: Experiment 1, Table 2
E. faecalis (G+) = assay: Minimum inhibitory concentration (MIC), E. faecalis; format: cell-based, Enterococcus faecalis; settings: Experiment 2, Table 3

NC[C@H]1O[C@H](O[C@H]2[C@H](O)[C@@H](O[C@H]3O[C@H](CO)[C@@H](O)[C@H](N)[C@H]3O)[C@H](N)C[C@@H]2N)[C@H](N)C[C@@H]1O [Tobramycin, reference compound]
Min conc. >50% disruption [1]: 31 µM
% disruption average ([1]; 2 μM): 6.808%
% disruption trial 1 ([1]; 2 μM): 0%
% disruption trial 2 ([1]; 2 μM): 13.62%
% disruption average ([1]; 4 μM): 27.66%
% disruption trial 1 ([1]; 4 μM): 0%
% disruption trial 2 ([1]; 4 μM): 55.3151%
% disruption average ([1]; 8 μM): 32.13%
% disruption trial 1 ([1]; 8 μM): 15.46%
% disruption trial 2 ([1]; 8 μM): 48.79%
% disruption average ([1]; 16 μM): 13.9806%
% disruption trial 1 ([1]; 16 μM): 0%
% disruption trial 2 ([1]; 16 μM): 27.9612%
% disruption average ([1]; 31 μM): 61.0098%
% disruption trial 1 ([1]; 31 μM): 51.89%
% disruption trial 2 ([1]; 31 μM): 70.13%
% disruption average ([1]; 63 μM): 60.79%
% disruption trial 1 ([1]; 63 μM): 53.5149%
% disruption trial 2 ([1]; 63 μM): 68.07%
% disruption average ([1]; 125 μM): 43.07%
% disruption trial 1 ([1]; 125 μM): 34.88%
% disruption trial 2 ([1]; 125 μM): 51.26%
% disruption average ([1]; 250 μM): 3.803%
% disruption trial 1 ([1]; 250 μM): 0%
% disruption trial 2 ([1]; 250 μM): 7.607%
Max % disruption [1]: 61%
MIC against P. aeruginosa (P. aeruginosa (G−) [2]): 6.4 µM (≈ 2.99 µg/mL)

CCCCCCCCCCCC[N+](C)(C)Cc1cc(C[N+](C)(C)CCO)cc(C[N+](C)(C)CCCCCCCCCCCC)c1.[Br-].[Br-].[Br-] [Compound 3]
MIC E. coli (G−) (E. coli (G−); Experiment 1, Table 2): 4 µM
MIC E. coli (G−) (E. coli (G−); Experiment 2, Table 3): 4 µM
MIC Pa2 (G−) (Pa2 (G−)): 8 µM
MIC for Gram-negative bacteria (Gram-negative bacteria): 4 to 8 µM
Min conc. >50% disruption [1]: 63 µM
% disruption average ([1]; 2 μM): 0%
% disruption trial 1 ([1]; 2 μM): 0%
% disruption trial 2 ([1]; 2 μM): 0%
% disruption average ([1]; 4 μM): 5.12%
% disruption trial 1 ([1]; 4 μM): 1.759%
% disruption trial 2 ([1]; 4 μM): 8.481%
% disruption average ([1]; 8 μM): 13.44%
% disruption trial 1 ([1]; 8 μM): 24.06%
% disruption trial 2 ([1]; 8 μM): 2.817%
% disruption average ([1]; 16 μM): 30.79%
% disruption trial 1 ([1]; 16 μM): 47.34%
% disruption trial 2 ([1]; 16 μM): 14.23%
% disruption average ([1]; 31 μM): 46.0133%
% disruption trial 1 ([1]; 31 μM): 61.1%
% disruption trial 2 ([1]; 31 μM): 30.93%
% disruption average ([1]; 63 μM): 68.14%
% disruption trial 1 ([1]; 63 μM): 72.05%
% disruption trial 2 ([1]; 63 μM): 64.22%
% disruption average ([1]; 125 μM): 65.66%
% disruption trial 1 ([1]; 125 μM): 65.04%
% disruption trial 2 ([1]; 125 μM): 66.29%
% disruption average ([1]; 250 μM): 66.48%
% disruption trial 1 ([1]; 250 μM): 67.34%
% disruption trial 2 ([1]; 250 μM): 65.61%
Max % disruption [1]: 68%
Degree of Ionization [3]: 0.20
CAC [3]: 1.9 mM
MIC P. aeruginosa (G−) (P. aeruginosa (G−) [4]; Experiment 1, Table 2): 8 µM
MIC P. aeruginosa (G−) (P. aeruginosa (G−) [4]; Experiment 2, Table 3): 8 µM
MIC S. aureus (G+) (S. aureus (G+); Experiment 1, Table 2): 4 µM
MIC S. aureus (G+) (S. aureus (G+); Experiment 2, Table 3): 4 µM
MIC B. subtilis (G+) (B. subtilis (G+)): 4 µM
MIC for Gram-positive bacteria (Gram-positive bacteria): 4 µM
MIC B. anthracis (G+) (B. anthracis (G+)): 2 µM
MIC S. agalactiae (G+) (S. agalactiae (G+)): 2 µM
MIC Pa1 (G−) (Pa1 (G−)): 8 µM
MIC E. faecalis (G+) (E. faecalis (G+)): 2 µM

CO/N=C(\C(=O)N[C@@H]1C(=O)N2C(C(=O)[O-])=C(C[N+]3(C)CCCC3)CS[C@H]12)c1csc(N)n1 [cefepime]
MIC against P. aeruginosa (P. aeruginosa (G−) [2]): 12.5 µM (≈ 6.01 µg/mL)

CCCCCCCC[N+](C)(C)Cc1cc(C[N+](C)(C)CCO)cc(C[N+](C)(C)CCCCCCCC)c1.[Br-].[Br-].[Br-] [Compound 1]
MIC E. coli (G−) (E. coli (G−); Experiment 2, Table 3): >250 µM
MIC P. aeruginosa (G−) (P. aeruginosa (G−) [4]; Experiment 2, Table 3): >250 µM
MIC S. aureus (G+) (S. aureus (G+); Experiment 2, Table 3): 250 µM
MIC B. subtilis (G+) (B. subtilis (G+)): 250 µM
MIC B. anthracis (G+) (B. anthracis (G+)): 63 µM
MIC S. agalactiae (G+) (S. agalactiae (G+)): 125 µM
MIC E. faecalis (G+) (E. faecalis (G+)): 63 µM

CCCCCCCCCC[N+](C)(C)Cc1cc(C[N+](C)(C)CCO)cc(C[N+](C)(C)CCCCCCCCCC)c1.[Br-].[Br-].[Br-] [Compound 2]
MIC E. coli (G−) (E. coli (G−); Experiment 2, Table 3): 125 µM
Degree of Ionization [3]: 0.24
CAC [3]: 9.5 mM
MIC P. aeruginosa (G−) (P. aeruginosa (G−) [4]; Experiment 2, Table 3): 250 µM
MIC S. aureus (G+) (S. aureus (G+); Experiment 2, Table 3): 125 µM
MIC B. subtilis (G+) (B. subtilis (G+)): 16 µM
MIC B. anthracis (G+) (B. anthracis (G+)): 4 µM
MIC S. agalactiae (G+) (S. agalactiae (G+)): 4 µM
MIC E. faecalis (G+) (E. faecalis (G+)): 4 µM

CCCCCCCCCCCCCCCC[N+](C)(C)Cc1cc(C[N+](C)(C)CCO)cc(C[N+](C)(C)CCCCCCCCCCCCCCCC)c1.[Br-].[Br-].[Br-] [Compound 5]
MIC E. coli (G−) (E. coli (G−); Experiment 1, Table 2): 63 µM
MIC E. coli (G−) (E. coli (G−); Experiment 2, Table 3): 63 µM
MIC Pa2 (G−) (Pa2 (G−)): >250 µM
Degree of Ionization [3]: 0.15
CAC [3]: 0.12 mM
MIC P. aeruginosa (G−) (P. aeruginosa (G−) [4]; Experiment 1, Table 2): 125 µM
MIC P. aeruginosa (G−) (P. aeruginosa (G−) [4]; Experiment 2, Table 3): 125 µM
MIC S. aureus (G+) (S. aureus (G+); Experiment 1, Table 2): 63 µM
MIC S. aureus (G+) (S. aureus (G+); Experiment 2, Table 3): 63 µM
MIC B. subtilis (G+) (B. subtilis (G+)): >250 µM
MIC B. anthracis (G+) (B. anthracis (G+)): >250 µM
MIC S. agalactiae (G+) (S. agalactiae (G+)): >250 µM
MIC Pa1 (G−) (Pa1 (G−)): >250 µM
MIC E. faecalis (G+) (E. faecalis (G+)): 63 µM

CCCCCCCCCCCCCC[N+](C)(C)Cc1cc(C[N+](C)(C)CCO)cc(C[N+](C)(C)CCCCCCCCCCCCCC)c1.[Br-].[Br-].[Br-] [Compound 4]
MIC E. coli (G−) (E. coli (G−); Experiment 1, Table 2): 8 µM
MIC E. coli (G−) (E. coli (G−); Experiment 2, Table 3): 8 µM
MIC Pa2 (G−) (Pa2 (G−)): 250 µM
Degree of Ionization [3]: 0.18
CAC [3]: 0.47 mM
MIC P. aeruginosa (G−) (P. aeruginosa (G−) [4]; Experiment 1, Table 2): 125 µM
MIC P. aeruginosa (G−) (P. aeruginosa (G−) [4]; Experiment 2, Table 3): 125 µM
MIC S. aureus (G+) (S. aureus (G+); Experiment 1, Table 2): 8 µM
MIC S. aureus (G+) (S. aureus (G+); Experiment 2, Table 3): 8 µM
MIC B. subtilis (G+) (B. subtilis (G+)): 8 µM
MIC B. anthracis (G+) (B. anthracis (G+)): 8 µM
MIC S. agalactiae (G+) (S. agalactiae (G+)): 4 µM
MIC Pa1 (G−) (Pa1 (G−)): 250 µM
MIC E. faecalis (G+) (E. faecalis (G+)): 4 µM
